{"source": "patent US20060198836A1", "about": "“Method of treating hit patients with argatroban” (Smithkline Beecham Corporation, priority 2003, published 2006)", "assay_type_in_all_cases": "in vivo, human", "key": {"[1]": {"tested_on": "patient with HIT with thrombosis", "from_the_text": "A person experienced pregnancy-induced hypertension and sudden weight gain during the third trimester of pregnancy. Premature labor led to the delivery of twins at 31 weeks gestation. After delivery, the patient remained hypertensive. On post-partum day 7, they awoke with chest pain and shortness of breath. They were lethargic with a blood pressure of 190/96 mm Hg and heart rate 135 beats per minute.\nOn postpartum day 10, the patient was transferred to another hospital for left hemiparesis. A non-hemorrhagic right cerebral infarction was confirmed by computed tomography. During days 4 to 7 of heparin therapy, platelet counts fluctuated between 163×10^9/L and 99×10^9/L with no clear downward trend. A platelet count was not obtained on day 8. However, on day 9 of heparin therapy, the patient's right leg became ischemic and their platelet count decreased to 34×10^9/L. HIT was suspected and heparin was immediately discontinued. The patient was taken to the operating room and Fogerty balloon thrombectomy of the right superficial and profunda arteries removed a typical red, fleshy acute thrombus. The clinical diagnosis of HIT with thrombosis was confirmed by the detection of heparin/PF4 antibodies in the patient's day 9 serum (but not in their serum from day 3) using an in-vitro functional test, the serotonin release assay (SRA).\nAn alternative anticoagulant was needed for further treatment of their pulmonary embolism and to prevent further thrombosis of the right femoral artery. The direct thrombin inhibitor Argatroban was initiated at 2 mcg/kg/min and titrated to achieve an activated partial thromboplastin time (aPTT) of 1.5 to 3.0 times the patient's baseline aPTT value.\nAfter 6 days of Argatroban monotherapy and recovery of the platelet count to >100×10^9/L, warfarin was initiated concomitantly. Warfarin was started at the expected daily dose of 5 mg. On the 4th day of concomitant therapy, Argatroban infusion was held for 4 hours (to eliminate the effects of Argatroban on the INR) and the INR was rechecked to assure a therapeutic INR on warfarin alone. The INR was 2.1, which is considered therapeutic for the underlying medical condition, so the Argatroban was discontinued."}, "[2]": {"tested_on": "patient with HIT with thrombosis", "assay": "Example 3 patient case: Argatroban with transition to warfarin, avoiding warfarin-induced skin necrosis and venous limb gangrene", "from_the_text": "The following patient case is an example of an appropriate transition to warfarin, because Argatroban therapy is continued for at least 5 days and until the patient's platelet count has recovered to >100×10^9/L. In addition, concomitant therapy with Argatroban and warfarin overlaps for at least 4-5 days.\nA person presented to the hospital with an acute myocardial infarction, for which they received tissue plasminogen activator and heparin. Their platelet count was 190×10^9/L on admission. They underwent coronary artery bypass grafting several days later, and heparin was continued throughout the peri-operative period. Postoperatively, the patient experienced atrial fibrillation, and warfarin was initiated. Four days postoperatively, they developed pain and discoloration of the left breast and right leg. The platelet count was 60×10^9/L and the INR was 6.1. Unfortunately, the breast and leg lesions progressed rapidly and the patient ultimately required a mastectomy and below the knee amputation. Five weeks later, they were readmitted with upper extremity swelling. The platelet count was 126×10^9/L on readmission. Ultrasound confirmed axillary/subclavian and femoral venous thromboses, for which heparin therapy was re-initiated. The platelet count fell from 126×10^9/L to 26×10^9/L after 3 days of intravenous heparin, and the diagnosis of HIT with thrombosis was made. The patient's initial breast and leg lesions are examples of warfarin-induced skin necrosis and venous limb gangrene, respectively, which are possible clinical manifestations of HIT. The patient was started on Argatroban 2 mcg/kg/min and the dose was titrated to maintain aPTT values between 1.5 and 3 times their baseline aPTT. […] Argatroban was continued for 11 days. On day 6 of Argatroban therapy, warfarin was initiated at the estimated daily dose of 5 mg. At that time, the platelet count was 150×10^9/L. Concomitant therapy with Argatroban and warfarin was continued for […] in accordance with the recommended overlap of 4 to 5 days. On the 5th day of concomitant therapy, the Argatroban was held for 6 hours and the INR value reflecting warfarin therapy alone was checked. The INR was 2.9 and the Argatroban infusion was subsequently discontinued. • See e.g.: • Warkentin T E, Elavathil L J, Hayward C P M, et al. The pathogenesis of venous limb gangrene associated with heparin-induced thrombocytopenia. Ann Intern Med. 1997; 127:804-812. • Smythe M A, Warkentin T E, Stephens J L, et al. Venous limb gangrene during overlapping therapy with warfarin and a direct thrombin inhibitor for immune heparin-induced thrombocytopenia. Am J Hematol 2002; 71:50-52. • Srinivasan A F, Rice L, Bartholomew J R, et al. Warfarin-induced skin necrosis and venous limb gangrene in the setting of heparin-induced thrombocytopenia. […]"}, "[3]": {"tested_on": "patients with HIT", "assay": "Clinical trial of 304 patients with HIT with or without thrombosis who received argatroban; outcome by platelet count on day of argatroban cessation", "from_the_text": "In a clinical trial of 304 patients with HIT with or without thrombosis who received argatroban, 165 patients with active HIT had platelet count data available for the day of argatroban cessation. […] Therefore, we recommend these approaches for refining the existing method of therapy in patients with HIT receiving Argatroban."}, "[4]": {"tested_on": "patient with HIT with thrombosis (HITT)", "assay": "Example 1 patient case: Argatroban monotherapy in HIT with thrombosis, serial platelet counts", "description": "The patient is a person with a history of hypertension and hyperlipidemia who presented to the emergency department (ED) complaining of chest pain. […] The patient was admitted to the Coronary Care Unit and was treated with aspirin, intravenous nitroglycerin, metoprolol, and intravenous heparin. The platelet count on admission was 212×10^9/L. Serial cardiac enzymes and troponin concentrations were negative for a myocardial infarction. […] Coronary artery bypass grafting was performed 2 days later with an uneventful postoperative course. They were discharged from the hospital 7 days after the surgery in good condition and their platelet count was 136×10^9/L. One week later, the patient returned to the ED complaining of the acute onset of a cold and painful swollen left leg. Their medications included aspirin 325 mg daily, metoprolol 75 mg twice daily, NitroDur 20 mg daily and atorvastatin 20 mg daily. The physical examination was normal with the exception of mild hypertension and a cold, swollen left leg with blue discoloration from the knee down. In addition, the left popliteal pulse was faint and the left ankle pulse was non-palpable. […] Intravenous heparin was started and the patient was sent to the operating room for emergency surgery. A femoro-popliteal bypass was performed with a graft and there was an initial return of arterial blood flow to the lower leg. However, before the incision was closed, the graft re-occluded. The graft was opened and explored with an embolectomy catheter. A large amount of whitish granular material was found and subsequently removed from the distal end of the graft. Pulses returned to the lower leg and the incision was closed. By the time the closure was complete, the graft had again re-occluded. The finding of a platelet-rich “white clot” during this surgery along with thrombocytopenia alerted physicians to suspect HIT with thrombosis (HITT). Heparin was immediately discontinued and the DTI Argatroban was initiated (at 2 mcg/kg/min) that evening (day 1 of Argatroban). On the following day, the patient's left lower leg remained cold, blue and pulseless. They were transferred to another hospital where an amputation was performed. Argatroban was continued for 10 days. The platelet count began improving with the following serial platelet counts: 62×10^9/L on day 4, 78×10^9/L on day 6, 110×10^9/L on day 8 and 180×10^9/L on day 10. The patient was measured for a prosthetic leg and they underwent intense physical therapy for 6 months."}}, "note": "Read-outs that look alike come from different tables or passages of the source.", "data": [{"compound": "heparin", "values": [{"measurement": "platelet count", "setting": "[1]; human, in vivo", "result": "3.4e+10", "unit": "L⁻¹"}, {"measurement": "platelet count", "setting": "[2]; human, in vivo, iv", "result": "2.6e+10", "unit": "L⁻¹"}]}, {"compound": "CC1CNc2c(cccc2S(=O)(=O)N[C@@H](CCCNC(=N)N)C(=O)N2CC[C@@H](C)C[C@@H]2C(=O)O)C1", "note": "(stereo partly shown) [Argatroban]", "values": [{"measurement": "patients who experienced the composite endpoint of either death, amputation or new thrombosis", "setting": "[3]; 41 patients with platelet count <100×10^9/L on the day argatroban therapy was discontinued", "result": 61, "unit": "%"}, {"measurement": "patients who experienced the composite endpoint of either death, amputation or new thrombosis", "setting": "[3]; 124 patients with platelet count >100×10^9/L on the day argatroban therapy was discontinued", "result": 31.5, "unit": "%"}, {"measurement": "platelet count", "setting": "[4]; day 4 of Argatroban, initiated at 2 mcg/kg/min, 41×10^9/L before", "result": "6.2e+10", "unit": "L⁻¹"}, {"measurement": "platelet count", "setting": "[4]; day 6 of Argatroban", "result": "7.8e+10", "unit": "L⁻¹"}, {"measurement": "platelet count", "setting": "[4]; day 8 of Argatroban", "result": "1.1e+11", "unit": "L⁻¹"}, {"measurement": "platelet count", "setting": "[4]; day 10 of Argatroban", "result": "1.8e+11", "unit": "L⁻¹"}, {"measurement": "recovery of the platelet count", "setting": "[1]; after 6 days of Argatroban monotherapy", "result": "> 1e+11", "unit": "L⁻¹"}, {"measurement": "platelet count", "setting": "[1]; hospital day 10, day 2 of Argatroban therapy, 34 × 10^9/L prior to initiation", "result": "5.5e+10", "unit": "L⁻¹"}, {"measurement": "platelet count", "setting": "[1]; hospital day 13, day 5 of Argatroban therapy", "result": "1.1e+11", "unit": "L⁻¹"}, {"measurement": "platelet count", "setting": "[1]; hospital day 14, day 6 of Argatroban therapy", "result": "1.6e+11", "unit": "L⁻¹"}, {"measurement": "platelet count", "setting": "[1]; hospital day 16, day 8 of Argatroban therapy (warfarin concomitant)", "result": "1.49e+11", "unit": "L⁻¹"}, {"measurement": "platelet count", "setting": "[1]; hospital day 18, day 10 of Argatroban therapy (warfarin concomitant)", "result": "2.1e+11", "unit": "L⁻¹"}, {"measurement": "platelet count", "setting": "[1]; hospital day 20, day 12 of Argatroban therapy", "result": "2.8e+11", "unit": "L⁻¹"}, {"measurement": "platelet count", "setting": "[2]; day 6 of Argatroban therapy, when warfarin was initiated, 26×10^9/L before Argatroban", "result": "1.5e+11", "unit": "L⁻¹"}]}, {"compound": "CC(=O)CC(c1ccccc1)c1c(O)c2ccccc2oc1=O", "note": "(stereo not shown) [warfarin]", "values": [{"measurement": "INR on warfarin alone", "setting": "[1]; warfarin 5 mg daily, 4th day of concomitant therapy, Argatroban infusion held for 4 hours", "result": 2.1}, {"measurement": "INR", "setting": "[2]; four days postoperatively, warfarin initiated during heparin exposure, onset of skin necrosis and venous limb gangrene, platelet count 60×10^9/L", "result": 6.1}, {"measurement": "INR value reflecting warfarin therapy alone", "setting": "[2]; warfarin 5 mg daily, 5th day of concomitant therapy, Argatroban held for 6 hours", "result": 2.9}]}]}
